Assays:
[1] = system: human PASMCs from PAH patients; experiment: Cell proliferation assay (MTS), serum-induced growth; type: cell-based; details: for IP receptor dependence of the effect: cyclic AMP and cell proliferation assays in human PASMCs from PAH patients; for inhibition of serum-induced growth (significance) / inhibition at 0.1 µM: drug alone at 100 nM; for inhibition of serum-induced growth (significance): compared to serum and DMSO alone; for inhibition at 0.1 µM: Homo sapiens, PASMC, 96 h, compared to FBS and DMSO, 4 days
Protocol: Primary cell lines of distal PASMCs from PAH patients were derived from explanted lungs as previously described (Falcetti et al., 2010; Bubb et al., 2014). These cells have an abnormal proliferative capacity when grown in culture (Zhang et al., 2007; Falcetti et al., 2010). Frozen cells were revived and grown in human smooth muscle basal medium-2 (SMBM; Lonza, Slough, UK) supplemented with 9% fetal bovine serum (FBS) at 37° C. in a humidified atmosphere of 5% CO2. After reaching confluence, cells were washed with phosphate-buffered saline (PBS) and treated with trypsin-EDTA for further passage. Only cells between passages 3 and 10 were used for experiments.
Comparative concentration-dependent effects of IP receptor agonists on cell proliferation were assessed on human PASMCs derived from PAH patients. Cells were seeded onto 96-well plates at a density of 1×10^4 cells/ml and grown at 37° C. in a humidified CO2 incubator in human smooth muscle basal medium-2 (SMBM; Lonza) containing 9% FBS and penicillin-streptomycin (Pen/Strep; 50 units/ml). After 24 hours, cells were growth arrested by incubating for 48 hours in fresh media containing no added serum. Media was then subsequently removed, replaced with human SMBM containing 9% serum with or without 0.1% DMSO in the absence and presence of the IP receptor agonist (either ralinepag, iloprost, treprostinil or MRE-269) and cells treated with the IP receptor agonist for 4 days over the concentration range ([…]). Responses were directly compared in cells containing the IP receptor antagonist, RO-1138452 (1 μM), which was added to cells 30-60 minutes prior to the addition of the IP agonist and remained throughout the experiment. Cells incubated with no added serum over the same time period (4 days) acted as the time control.
Cell proliferation was obtained using an MTS proliferation kit (Promega), a colorimetric method for determining the number of viable cells which is based on the cleavage of the tetrazolium salt MTS to formazan by cellular mitochondrial dehydrogenases. An increase in cell number leads to a proportional increase in the amount of formazan dye formed which is quantified by measuring the absorbance of the dye solution at 490 nm. In each case background absorbance was corrected by subtracting the average absorbance from the “no cell” control wells from all other absorbance values.
Cell proliferation was then normalized to the growth response induced by FBS alone, which was taken as the FBS response minus the time control (=100% growth at 4 days). Growth responses induced in presence of solvent±drugs is shown as % change in cell proliferation relative to the FBS response alone in all figures.
All data are presented as mean±standard error of mean (S.E.M) of at least 5 observations. Agonist log-concentration curves were constructed and fitted using the non-linear fitting routine in GraphPad Prism 4 or 6 (San Diego, Calif., USA). The concentration of agonist causing 50% of the maximal response (Emax) was expressed as the negative log (pEC50) and the mean EC50 calculated. P values <0.05 are considered statistically significant.

[2] = system: human PASMCs from PAH patients; experiment: Cyclic AMP assay; type: cell-based; details: cyclic AMP assay
Protocol: Human PASMCs from PAH patients were grown to 70-80% confluence in 12 well plates in DMEM/F12 containing 9% foetal bovine serum (FBS), penicillin (50 U/ml)/streptomycin (50 ag/ml). To assess the time-course of cAMP elevation, cells were stimulated with 100 nM ralinepag for varying times (0.5, 1, 2, 4, 8, 24, 48 hours). This dose of ralinepag was chosen on the basis that it was close to the EC50 for cAMP generation in preliminary experiments. In other experiments, the IP receptor agonist was added for a specified time (60 minutes) over a full concentration range (0.1-10,000 nM) in the absence and presence of […] of the IP receptor antagonist, RO-1138452. The antagonist is added 30 minutes beforehand and remained throughout.
To extract cyclic AMP, the medium was aspirated and PASMCs cells incubated in 0.1 M HCl for 20 minutes on ice followed by centrifugation at 1000 g for 10 minutes at 4° C. The protein concentration in the supernatant was determined using a […] protein assay (BCA, Novagen, EmD Chemicals, CA, USA). Intracellular cyclic AMP was measured using a competitive enzyme immunoassay 96 well plate kit (ADI-900-163, Enzo Life Sciences, Exeter, UK) and the assay performed according to the manufacturer's instructions. Each sample was run in duplicate and data expressed as pmol of cAMP per mg of total protein for each individual sample. Basal levels were subtracted from each agonist concentration data point. Given the large variation (˜15-fold) in cAMP generation from different patient samples, data was also normalized to the peak cyclic AMP response (assigned 100%) in each cell isolate.

human IP receptor = human IP receptor (Homo sapiens, UniProt P43119); details: cited from earlier work
PDE1 = details: cited from earlier work

Chain of human IP receptor (P43119 whole entry): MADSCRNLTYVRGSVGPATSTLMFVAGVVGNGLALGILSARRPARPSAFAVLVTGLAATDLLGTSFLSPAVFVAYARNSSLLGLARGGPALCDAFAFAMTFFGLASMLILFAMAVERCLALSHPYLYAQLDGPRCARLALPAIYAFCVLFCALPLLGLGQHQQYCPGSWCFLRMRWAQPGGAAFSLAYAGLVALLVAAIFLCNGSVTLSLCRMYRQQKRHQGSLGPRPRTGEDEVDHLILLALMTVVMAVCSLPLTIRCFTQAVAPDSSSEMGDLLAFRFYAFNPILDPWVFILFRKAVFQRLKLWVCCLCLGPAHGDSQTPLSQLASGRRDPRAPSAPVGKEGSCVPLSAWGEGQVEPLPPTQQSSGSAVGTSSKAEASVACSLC

In the case of `CC(C)N(CCCCOCC(=O)O)c1cnc(-c2ccccc2)c(-c2ccccc2)n1` [MRE-269, [4[(5,6diphenylpyrazinyl)(1methylethyl)amino]butoxy]acetic acid, reference compound], the “maximal effect compared with treprostinil” value ([1]; cell proliferation assay) is reported as “weaker maximal effects”, the “IP receptor dependence of the effect” value [1] is reported as “selective IP receptor agonists” and the “maximal effect compared with treprostinil” value [2] is reported as “weaker maximal effects”. The Ki (human IP receptor) was 20 nM.
For `COc1ccccc1Oc1c(NS(=O)(=O)c2ccc(C(C)(C)C)cc2)nc(-c2ncccn2)nc1OCCO` [bosentan, reference compound], the “inhibition of serum-induced growth (significance)” value (from here on “inhibition … (significance)”) [1] was “did not cause a significant inhibition”.
In the case of `CC#CCC(C)[C@H](O)/C=C/[C@@H]1[C@H]2C/C(=C/CCCC(=O)O)C[C@H]2C[C@H]1O` (some centres unmarked) [iloprost, reference compound], the “IP receptor dependence of the effect” value [1] is reported as “IP-independent mechanisms”.
For `CCCNS(=O)(=O)Nc1ncnc(OCCOc2ncc(Br)cn2)c1-c1ccc(Br)cc1` [macitentan, reference compound], the inhibition at 0.1 µM [1] was ~12%.
With `COC(=O)N(C)c1c(N)nc(-c2nn(Cc3ccccc3F)c3ncccc23)nc1N` [riociguat, reference compound] the inhibition at 0.1 µM [1] was ~15%.
For `CC(C)N(CCCCOCC(=O)NS(C)(=O)=O)c1cnc(-c2ccccc2)c(-c2ccccc2)n1` [selexipag, 2-{4-[(5,6-diphenylpyrazin-2-yl)(propan-2-yl)amino]butoxy}-N-(methanesulfonyl)acetamide], the Ki (human IP receptor) is given as 260 nM.
For `CCCc1nn(C)c2c(=O)[nH]c(-c3cc(S(=O)(=O)N4CCN(C)CC4)ccc3OCC)nc12` [sildenafil, reference compound], the “inhibition … (significance)” value [1] is listed as “did not significantly inhibit growth” and the Ki (PDE1) is listed as 40 nM.
In the case of `CCCCC[C@H](O)CC[C@@H]1[C@H]2Cc3cccc(OCC(=O)O)c3C[C@H]2C[C@H]1O` [treprostinil, reference compound], the “antiproliferative response in the presence of an IP receptor antagonist” value ([1]; IP receptor antagonist RO-1138452 (1 μM)) is reported as “only weakly inhibited”, the “IP receptor dependence of the effect” value [1] is reported as “IP-independent mechanisms” and the “inhibition … (significance)” value [1] is reported as “significantly inhibited growth”.

Reference: patent publication US12377067B2, “Methods of treating PAH with combinations of ralinepag and other agents” (Arena Pharmaceuticals, Inc., priority 2016, dated 2025)
